Test results as given in PubChem BioAssay (NCI).
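Grown in 96-well plates, cells were treated for 48 hours with each compound at five concentrations. Insufficient inhibition: endpoint recorded as highest concentration tested. GI50 = concentration required for 50% inhibition of growth. TGI denotes the concentration required for complete inhibition of growth.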

Key:
Experiment in all cases: growth of human tumour cells (NCI), 48 h
HOP-62 NSCLC = system: HOP-62 NSCLC
SNB-75 CNS = system: SNB-75 CNS
HCT-15 colon = system: HCT-15 colon
IGROV1 ovarian = system: IGROV1 ovarian
NCI-H23 lung = system: NCI-H23 lung
U251 CNS = system: U251 CNS
UO-31 renal = system: UO-31 renal
NCI/ADR-RES ovarian = system: NCI/ADR-RES ovarian
OVCAR-3 ovarian = system: OVCAR-3 ovarian
HL-60(TB) leukemia = system: HL-60(TB) leukemia

SMILES	GI50 (HOP-62 NSCLC)	TGI (HOP-62 NSCLC)	GI50 (SNB-75 CNS)	TGI (SNB-75 CNS)	GI50 (HCT-15 colon)	TGI (HCT-15 colon)	GI50 (IGROV1 ovarian)	TGI (IGROV1 ovarian)	GI50 (NCI-H23 lung)	TGI (NCI-H23 lung)	GI50 (U251 CNS)	TGI (U251 CNS)	GI50 (UO-31 renal)	TGI (UO-31 renal)	GI50 (NCI/ADR-RES ovarian)	TGI (NCI/ADR-RES ovarian)	GI50 (OVCAR-3 ovarian)	TGI (OVCAR-3 ovarian)	GI50 (HL-60(TB) leukemia)	TGI (HL-60(TB) leukemia)
CCCCCCCCCCCCCC[n+]1ccc(C)cc1	1.27 µM	2.61 µM	0.806 µM	2.37 µM	4.01 µM	22.4 µM	0.349 µM	0.953 µM	0.504 µM	2.51 µM	0.437 µM	1.65 µM	1.38 µM	3.79 µM	11.8 µM	37 µM	0.351 µM	1.28 µM	0.338 µM	1.19 µM
CC(C)c1ccccc1SCc1cc(=O)cc(CSc2ccccc2C(C)C)o1	–	43.6 µM	–	36.5 µM	–	94.3 µM	–	33.1 µM	–	> 100 µM	–	86.8 µM	–	> 100 µM	–	41.5 µM	–	39.2 µM	–	82 µM
C=C1C(=O)OC2CC(C)C3C4OC4C(O)C3(C)C(O)C12 (stereo not given)	–	127 µM	–	92.1 µM	–	77.6 µM	–	52.1 µM	–	55.5 µM	–	96.6 µM	–	149 µM	–	91.9 µM	–	69.3 µM	–	> 51.6 µM
CC12CCC(CC1)C(C)(C)O2	–	52.2 µM	–	115 µM	–	71.8 µM	–	86.3 µM	–	121 µM	–	112 µM	–	78.3 µM	–	266 µM	–	84.8 µM	–	> 93.9 µM
O=C1/C(=C/c2ccc(O)cc2)COc2ccc(O)c(O)c21	3.98 µM	> 100 µM	1.78 µM	> 100 µM	1.31 µM	4.07 µM	2.45 µM	7.32 µM	3.97 µM	34.7 µM	2.62 µM	13.9 µM	1.09 µM	2.74 µM	2.91 µM	> 100 µM	2.05 µM	5.79 µM	1.93 µM	7.41 µM
CSc1nc(N)c2c(-c3ccccc3)c3c(nc2n1)CCCC3	–	> 100 µM	–	> 100 µM	–	> 100 µM	–	> 100 µM	–	> 100 µM	–	> 100 µM	–	> 100 µM	–	> 100 µM	–	> 100 µM	–	> 100 µM
